According to patent publication US12227539B2, “Mogroside compounds and uses thereof” (Firmenich SA, priority 2019, dated 2025):

Key:
[1] = Tasting of a sample of the purified compound (taste perceived, sweetness relative to sucrose); settings: for sweetness relative to sucrose: tasted at 500 ppm in a water base, approximate
Text: The sweetness intensity perceived was weaker than the sweetness intensity perceived with mogroside V. However, the perception of licorice and lingering profile of isomogroside IVe was weaker than that of mogroside V (see table on following page).

[2] = Sensory profile scores (Sweet, Licorice, Lingering) compared with mogroside V
[3] = tasted at a concentration of 250 ppm
[4] = tasted at a concentration of 500 ppm in a water base

C[C@H](CC[C@@H](O[C@@H]1O[C@H](CO[C@@H]2O[C@H](CO)[C@@H](O)[C@H](O)[C@H]2O)[C@@H](O)[C@H](O)[C@H]1O[C@@H]1O[C@H](CO)[C@@H](O)[C@H](O)[C@H]1O)C(C)(C)O)[C@H]1CC[C@@]2(C)[C@@H]3CC=C4[C@@H](CC[C@H](O[C@@H]5O[C@H](CO[C@@H]6O[C@H](CO)[C@@H](O)[C@H](O)[C@H]6O)[C@@H](O)[C@H](O)[C@H]5O[C@@H]5O[C@H](CO)[C@@H](O)[C@H](O)[C@H]5O)C4(C)C)[C@]3(C)[C@H](O)C[C@]12C (stereo in doubt) [Compound 14a, (1S,4R,9beta,11beta,24R)-1-{[beta-D-glucopyranosyl-(1→2)-[beta-D-glucopyranosyl-(1→6)]-beta-D-glucopyranosyl]oxy}-11,25-dihydroxy-9,10,14-trimethyl-4,9-cyclo-9,10-secocholest-5-en-24-yl beta-D-glucopyranosyl-(1→2)-[beta-D-glucopyranosyl-(1→6)]-beta-D-glucopyranoside]
taste perceived [1, 3]: No taste

C[C@H](C(O)C[C@@H](O[C@@H]1O[C@H](CO[C@@H]2O[C@H](CO)[C@@H](O)[C@H](O)[C@H]2O)[C@@H](O)[C@H](O)[C@H]1O)C(C)(C)O)[C@H]1CC[C@@]2(C)[C@@H]3CC=C4[C@@H](CC[C@H](O[C@@H]5O[C@H](CO[C@@H]6O[C@H](CO)[C@@H](O)[C@H](O)[C@H]6O)[C@@H](O)[C@H](O)[C@H]5O)C4(C)C)[C@]3(C)[C@H](O)C[C@]12C (stereo partly drawn) [Compound 1a, (1S,4R,9beta,11alpha,24R)-1-{[6-O-(beta-D-glucopyranosyl)-beta-D-glucopyranosyl]oxy}-11,22,25-trihydroxy-9,10,14-trimethyl-4,9-cyclo-9,10-secocholest-5-en-24-yl 6-O-beta-D-glucopyranosyl-beta-D-glucopyranoside]
taste perceived [1, 3]: No taste

C[C@H](C(O)C[C@@H](O[C@@H]1O[C@H](CO[C@@H]2O[C@H](CO)[C@@H](O)[C@H](O)[C@H]2O)[C@@H](O)[C@H](O)[C@H]1O)C(C)(C)O)[C@H]1CC[C@@]2(C)[C@@H]3CC=C4[C@@H](CC[C@H](O[C@@H]5O[C@H](CO)[C@@H](O)[C@H](O)[C@H]5O)C4(C)C)[C@]3(C)[C@H](O)C[C@]12C (stereo partly drawn) [Compound 2a, (1S,4R,9beta,11alpha,24R)-1-(beta-D-glucopyranosyloxy)-11,22,25-trihydroxy-9,10,14-trimethyl-4,9-cyclo-9,10-secocholest-5-en-24-yl 6-O-beta-D-glucopyranosyl-beta-D-glucopyranoside]
sweetness relative to sucrose [1]: 20-50 times sweeter than sucrose | taste perceived [1, 4]: weak sweet taste

C[C@H](C(O)C[C@@H](O[C@@H]1O[C@H](CO[C@@H]2O[C@H](CO)[C@@H](O)[C@H](O)[C@H]2O)[C@@H](O)[C@H](O)[C@H]1O)C(C)(C)O)[C@H]1CC[C@@]2(C)[C@@H]3CC=C4[C@@H](CC[C@H](O[C@@H]5O[C@H](CO)[C@@H](O)[C@H](O)[C@H]5O)C4(C)C)[C@]3(C)[C@@H](O)C[C@]12C (stereo partly drawn) [Compound 2b, (1S,4R,9beta,11beta,24R)-1-(beta-D-glucopyranosyloxy)-11,22,25-trihydroxy-9,10,14-trimethyl-4,9-cyclo-9,10-secocholest-5-en-24-yl 6-O-beta-D-glucopyranosyl-beta-D-glucopyranoside]
taste perceived [1, 3]: No taste

C[C@H](CC[C@@H](O[C@@H]1O[C@H](CO[C@@H]2O[C@H](CO)[C@@H](O)[C@H](O)[C@H]2O)[C@@H](O)[C@H](O)[C@H]1O[C@@H]1O[C@H](CO)[C@@H](O)[C@H](O)[C@H]1O)C(C)(C)O)[C@H]1CC[C@@]2(C)[C@@H]3C(O)C=C4[C@@H](CC[C@H](O[C@@H]5O[C@H](CO[C@@H]6O[C@H](CO)[C@@H](O)[C@H](O)[C@H]6O)[C@@H](O)[C@H](O)[C@H]5O)C4(C)C)[C@]3(C)[C@H](O)C[C@]12C (stereo partly drawn) [Compound 4a, (1S,4R,9beta,11alpha,24R)-1-{[6-O-(beta-D-glucopyranosyl)-beta-D-glucopyranosyl]oxy}-7,11,25-trihydroxy-9,10,14-trimethyl-4,9-cyclo-9,10-secocholest-5-en-24-yl beta-D-glucopyranosyl-(1→2)-[beta-D-glucopyranosyl-(1→6)]-beta-D-glucopyranoside]
sweetness relative to sucrose [1]: 30-60 times sweeter than sucrose | taste perceived [1, 4]: weak sweet taste

C[C@H](CC[C@@H](O[C@@H]1O[C@H](CO[C@@H]2O[C@H](CO)[C@@H](O)[C@H](O)[C@H]2O)[C@@H](O)[C@H](O)[C@H]1O[C@@H]1O[C@H](CO)[C@@H](O)[C@H](O)[C@H]1O)C(C)(C)O)[C@H]1CC[C@@]2(C)[C@@H]3CC=C4[C@@H](CC[C@H](O[C@@H]5O[C@H](CO[C@@H]6O[C@H](CO)[C@@H](O)[C@H](O)[C@H]6O)[C@@H](O)[C@H](O)[C@H]5O)C4(C)C)[C@]3(C=O)C(=O)C[C@]12C [Compound 6a, (1S,4R,9beta,24R)-9-formyl-1-{[6-O-(beta-D-glucopyranosyl)-beta-D-glucopyranosyl]oxy}-25-hydroxy-10,14-dimethyl-11-oxo-4,9-cyclo-9,10-secocholest-5-en-24-yl beta-D-glucopyranosyl-(1→2)-[beta-D-glucopyranosyl-(1→6)]-beta-D-glucopyranoside]
sweetness relative to sucrose [1]: 100-200 times sweeter than sucrose | taste perceived [1, 4]: strong sweet taste

CC(C)(O)[C@@H](CC[C@](C)(O)[C@H]1CC[C@@]2(C)[C@@H]3CC=C4[C@@H](CC[C@H](O[C@@H]5O[C@H](CO[C@@H]6O[C@H](CO)[C@@H](O)[C@H](O)[C@H]6O)[C@@H](O)[C@H](O)[C@H]5O)C4(C)C)[C@]3(C)[C@H](O)C[C@]12C)O[C@@H]1O[C@H](CO[C@@H]2O[C@H](CO)[C@@H](O)[C@H](O)[C@H]2O)[C@@H](O)[C@H](O)[C@H]1O[C@@H]1O[C@H](CO)[C@@H](O)[C@H](O)[C@H]1O [Compound 7a, (1S,4R,9beta,11alpha,24R)-1-{[6-O-(beta-D-glucopyranosyl)-beta-D-glucopyranosyl]oxy}-11,20,25-trihydroxy-9,10,14-trimethyl-4,9-cyclo-9,10-secocholest-5-en-24-yl beta-D-glucopyranosyl-(1→2)-[beta-D-glucopyranosyl-(1→6)]-beta-D-glucopyranoside]
taste perceived [1, 3]: No taste

CC(C)(O)[C@@H](CC[C@](C)(O)[C@H]1CC[C@@]2(C)[C@@H]3CC=C4[C@@H](CC[C@H](O[C@@H]5O[C@H](CO)[C@@H](O)[C@H](O)[C@H]5O)C4(C)C)[C@]3(C)C(=O)C[C@]12C)O[C@@H]1O[C@H](CO[C@@H]2O[C@H](CO)[C@@H](O)[C@H](O)[C@H]2O)[C@@H](O)[C@H](O)[C@H]1O [Compound 8a, (1S,4R,9beta,24R)-1-(beta-D-glucopyranosyloxy)-20,25-dihydroxy-9,10,14-trimethyl-11-oxo-4,9-cyclo-9,10-secocholest-5-en-24-yl 6-O-beta-D-glucopyranosyl-beta-D-glucopyranoside]
taste perceived [1, 3]: No taste

CC(C)(O)[C@@H](CC[C@](C)(O)[C@H]1CC[C@@]2(C)[C@@H]3CC=C4[C@@H](CC[C@H](O[C@@H]5O[C@H](CO[C@@H]6O[C@H](CO)[C@@H](O)[C@H](O)[C@H]6O)[C@@H](O)[C@H](O)[C@H]5O[C@@H]5O[C@H](CO)[C@@H](O)[C@H](O)[C@H]5O)C4(C)C)[C@]3(C)C(=O)C[C@]12C)O[C@@H]1O[C@H](CO[C@@H]2O[C@H](CO)[C@@H](O)[C@H](O)[C@H]2O)[C@@H](O)[C@H](O)[C@H]1O [Compound 9a, (1S,4R,9beta,24R)-24-{[6-O-(beta-D-glucopyranosyl)-beta-D-glucopyranosyl]oxy}-20,25-dihydroxy-9,10,14-trimethyl-11-oxo-4,9-cyclo-9,10-secocholest-5-en-1-yl beta-D-glucopyranosyl-(1→2)-[beta-D-glucopyranosyl-(1→6)]-beta-D-glucopyranoside]
taste perceived [1, 3]: No taste

C[C@H](CC[C@@H](O[C@@H]1O[C@H](CO[C@@H]2O[C@H](CO)[C@@H](O)[C@H](O)[C@H]2O)[C@@H](O)[C@H](O)[C@H]1O[C@@H]1O[C@H](CO)[C@@H](O)[C@H](O)[C@H]1O)C(C)(C)O)[C@H]1CC[C@@]2(C)[C@@H]3CC=C4[C@@H](CC[C@H](O[C@@H]5O[C@H](CO[C@@H]6O[C@H](CO)[C@@H](O)[C@H](O)[C@H]6O)[C@@H](O)[C@H](O)[C@H]5O)C4(C)C)[C@]3(C)[C@H](O)C[C@]12C [Mogroside V, reference compound]
Licorice ([2]; Dosage 250 ppm): 3.8 | Lingering ([2]; Dosage 250 ppm): 4.9 | Sweet ([2]; Dosage 250 ppm): 6.0 | Licorice ([2]; Dosage 500 ppm): 4.2 | Lingering ([2]; Dosage 500 ppm): 5.2 | Sweet ([2]; Dosage 500 ppm): 7.2

(1S,4R,9beta,11alpha,24R)-24-{[6-O-(beta-D-glucopyranosyl)-beta-D-glucopyranosyl]oxy}-11,22,25-trihydroxy-9,10,14-trimethyl-4,9-cyclo-9,10-secocholest-5-en-1-yl 4-O-beta-D-glucopyranosyl-beta-D-glucopyranoside [Compound 3a]
taste perceived [1, 3]: No taste

(1S,4R,9beta,24R)-1-{[6-O-(beta-D-glucopyranosyl)-beta-D-glucopyranosyl]oxy}-25-hydroxy-9-(hydroxymethyl)-10,14-dimethyl-11-oxo-4,9-cyclo-9,10-secocholest-5-en-24-yl beta-D-glucopyranosyl-(1→2)-[beta-D-glucopyranosyl-(1→6)]-beta-D-glucopyranoside [Compound 5a]
taste perceived [1, 3]: No taste

[(1S,4R,9beta,10R,24R)-24-{[beta-D-glucopyranosyl-(1→6)-beta-D-glucopyranosyl-(1→6)-beta-D-glucopyranosyl]oxy}-1,25-dihydroxy-9,14-dimethyl-11-oxo-4,9-cyclo-9,10-secocholest-5-en-10-yl]methyl beta-D-glucopyranosyl-(1→6)-[beta-D-glucopyranosyl-(1→4)-beta-D-glucopyranosyl-(1→2)]-beta-D-glucopyranoside [Compound 10a]
taste perceived [1, 3]: No taste

isomogroside IVe
perception of licorice and lingering profile compared with mogroside V ([2]; 250 ppm in a water base): weaker
